The text below walks through data of PubChem BioAssay (NCI).

Several values for one entry are separate records, joined by “and”; a condition that tells them apart may be missing. Identical values can stand only once.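 Step 1: Grow cells in 96-well plates. Step 2: Expose to compound for 48 hours at 5 concentrations. Step 3: Interpolate endpoints linearly; if unreached, use highest concentration. TGI marks complete inhibition of growth.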

Among the test systems are A549 NSCLC; BT-549 breast; EKVX NSCLC; HCT-15 colon; K-562 leukemia; M14 melanoma; OVCAR-5 ovarian; SF-295 CNS; SN12C renal; SR leukemia; HL-60(TB) leukemia.
Common to all, as to experiment: NCI tumour cell line growth inhibition, 48 h

On to `COC(=O)C(NC(=O)CNC(=O)CSc1nnc(COc2ccc(Cl)cc2)n1-c1ccccc1)C(C)C` (centres undefined), for which the TGI in the test with A549 NSCLC was greater than 100 µM; in the test with BT-549 breast it was 34 µM; in the test with EKVX NSCLC, greater than 100 µM; in the test with HCT-15 colon, 48.9 µM; in the test on K-562 leukemia it was greater than 100 µM; in the test with M14 melanoma it was 38.5 µM. Moreover, the TGI with OVCAR-5 ovarian worked out at 40.1 µM; in the test with SF-295 CNS it was 34.5 µM; in the test with SN12C renal it was 35.9 µM; with SR leukemia, 52.3 µM.
On to `CCN1/C(=C/c2ccc3ccccc3[n+]2CC)C=Cc2ccccc21`, for which the TGI in the test on A549 NSCLC is 17.1 µM; with BT-549 breast, 24 µM; in the test on EKVX NSCLC, 16.7 µM; with HCT-15 colon, 34.1 µM; in the test on K-562 leukemia, greater than 100 µM; in the test with M14 melanoma, 12.8 µM. In addition, the TGI in the test with OVCAR-5 ovarian is 24.4 µM; in the test with SF-295 CNS, 10.5 µM; in the test with SN12C renal, 12.8 µM; in the test on SR leukemia it was greater than 100 µM.
Turning to `OC1C(O)C(O)C(O)C(O)C1O` (centres undefined), the TGI with A549 NSCLC, in the test with BT-549 breast, in the test on HCT-15 colon, in the test with K-562 leukemia, with M14 melanoma and in the test with OVCAR-5 ovarian was greater than 1000 µM in each case. Also, the TGI with SN12C renal and with SR leukemia was greater than 1000 µM throughout.
As for `Cc1cc2c(c3oc(C(O)(CO)C4CO4)cc(=O)c13)C(=O)c1c(O)cccc1C2=O` (centres undefined), the TGI is 0.0139 µM and 0.0213 µM and 0.0606 µM with A549 NSCLC; 0.000438 µM in the test with BT-549 breast; 0.0171 µM and 0.0378 µM in the test with EKVX NSCLC; 0.00152 µM in the test with HCT-15 colon; 0.00397 µM in the test with HL-60(TB) leukemia; 0.00791 µM and 0.00328 µM and 0.0041 µM in the test on OVCAR-5 ovarian. For the same compound, the results for the TGI with SF-295 CNS and in the test with SR leukemia were 0.00094 µM and 0.00227 µM, respectively.
Regarding `CCOC(=O)c1c(C)n(Cc2ccccc2)c2c1cc(O)c1[nH]c3c(c12)CCCC3`, the TGI in the test on A549 NSCLC worked out at 19.6 µM; with BT-549 breast, 24.6 µM; in the test with EKVX NSCLC, 8.12 µM; in the test with HCT-15 colon, 13.9 µM; in the test with HL-60(TB) leukemia, 5.52 µM; in the test with K-562 leukemia it was 10.9 µM. The TGI in the test with M14 melanoma came to 20.9 µM; in the test on OVCAR-5 ovarian it was 20.1 µM; in the test with SF-295 CNS it was 11.5 µM; in the test on SN12C renal, 17.8 µM.
As for `c1ccc2c(c1)CCc1c-2n(CCN2CCCCC2)c2ccccc12`, the TGI turned out to be 43.7 µM with A549 NSCLC; 42.1 µM in the test on BT-549 breast; 37.9 µM in the test on EKVX NSCLC; 22.9 µM with HCT-15 colon; 30.9 µM in the test on K-562 leukemia; 29.7 µM in the test with M14 melanoma. For the same compound, the TGI in the test with OVCAR-5 ovarian came out at 30.2 µM; in the test with SF-295 CNS, 30.8 µM; in the test on SN12C renal, 36.9 µM; in the test with SR leukemia it was 32.3 µM.
Consider `N#CC1C(=O)Nc2sc(C(=O)c3ccc(Br)cc3)c(N)c2C12CCCCC2` (centres undefined), for which the TGI with A549 NSCLC is greater than 100 µM; in the test with BT-549 breast it was greater than 100 µM; in the test with EKVX NSCLC, greater than 100 µM; with HCT-15 colon it was greater than 100 µM; in the test with K-562 leukemia it was greater than 100 µM; with M14 melanoma it was 39 µM. Besides, the TGI in the test on OVCAR-5 ovarian, in the test with SF-295 CNS, in the test with SN12C renal and with SR leukemia was greater than 100 µM each time.
As for `N[C@@H]1c2c(Br)sc(Br)c2[C@H](O)[C@@H]1O`, the TGI with A549 NSCLC, in the test with BT-549 breast, in the test with EKVX NSCLC, in the test on HCT-15 colon, in the test with HL-60(TB) leukemia and in the test with K-562 leukemia was greater than 100 µM throughout. Moreover, the TGI in the test on M14 melanoma, with OVCAR-5 ovarian, with SF-295 CNS and in the test on SN12C renal was greater than 100 µM throughout.
With `O=C1CN(c2ccc(Cl)cc2)C(=O)CN1CCN1CC(=O)N(c2ccc(Cl)cc2)CC1=O`, the TGI with A549 NSCLC, with BT-549 breast, in the test with EKVX NSCLC, with HCT-15 colon, in the test on HL-60(TB) leukemia and with M14 melanoma was greater than 100 µM in each case. For the same compound, the TGI in the test on OVCAR-5 ovarian, with SF-295 CNS, in the test on SN12C renal and with SR leukemia was greater than 100 µM each time.
Take `Cc1ccc(S(=O)(=O)N2CCSCCSCCN(S(=O)(=O)c3ccc(C)cc3)CCN(S(=O)(=O)c3ccc(C)cc3)CC2)cc1`: the TGI in the test with A549 NSCLC, with BT-549 breast, with EKVX NSCLC, in the test with HCT-15 colon, in the test with HL-60(TB) leukemia and with K-562 leukemia was greater than 100 µM in each case. In addition, the TGI in the test on M14 melanoma, in the test on OVCAR-5 ovarian, in the test with SF-295 CNS and in the test with SN12C renal was greater than 100 µM in each case.
With `O=C(CCCCCCCCC(=O)NN1C(=O)/C(=C\c2ccc(O)c(O)c2)SC1c1c(O)ccc2ccccc12)NN1C(=O)C(=Cc2ccc(O)c(O)c2)SC1c1c(O)ccc2ccccc12` (centres undefined), the TGI is greater than 37.1 µM in the test with A549 NSCLC; greater than 100 µM with BT-549 breast; greater than 100 µM in the test on EKVX NSCLC; greater than 100 µM in the test on HCT-15 colon; greater than 60.8 µM in the test on K-562 leukemia; greater than 48.5 µM with M14 melanoma. Moreover, the TGI with OVCAR-5 ovarian was greater than 100 µM; in the test on SF-295 CNS, greater than 100 µM; in the test on SN12C renal, greater than 87.4 µM; in the test with SR leukemia, greater than 30.8 µM.
With `Cn1c(-c2csc(-c3ccc(Cl)cc3)n2)n[nH]c1=S`, the TGI is greater than 100 µM in the test with A549 NSCLC; 55.8 µM in the test on BT-549 breast; greater than 100 µM with EKVX NSCLC; greater than 100 µM in the test on HCT-15 colon; greater than 100 µM with K-562 leukemia; greater than 100 µM in the test with M14 melanoma. In addition, the TGI was greater than 100 µM with OVCAR-5 ovarian, 34.3 µM with SF-295 CNS, greater than 100 µM in the test on SN12C renal and greater than 100 µM in the test on SR leukemia.
Regarding `CCCn1cnc2c(NN=O)ncnc21`, the TGI with BT-549 breast, in the test with EKVX NSCLC, in the test on HCT-15 colon, with HL-60(TB) leukemia, with K-562 leukemia and in the test with M14 melanoma was greater than 100 µM in each case. In addition, the TGI with OVCAR-5 ovarian and in the test on SR leukemia was greater than 100 µM throughout.
With `Cc1cc2c(cc1O)CC[C@@H]1[C@@H]2CC[C@]2(C)[C@@H](O)CC[C@@H]12`, the TGI in the test with A549 NSCLC is greater than 100 µM; in the test on BT-549 breast it was 20.1 µM; in the test with HCT-15 colon, 16.4 µM; with HL-60(TB) leukemia it was 5.54 µM; in the test on K-562 leukemia, 13.2 µM; in the test with M14 melanoma, 21.4 µM. For the same compound, the TGI is 71.9 µM in the test with OVCAR-5 ovarian, 20.3 µM with SF-295 CNS, 31.2 µM in the test with SN12C renal and 5.5 µM in the test with SR leukemia.
